Measurements published in ChEMBL document CHEMBL1201862, “PubChem BioAssay data set” (2004).
Active and inactive are the calls of the source.

Assays:
Cytochrome P450 2D6 = Cytochrome P450 2D6 (Homo sapiens, UniProt P10635);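 further: CYP2D6 member of a cytochrome P450 panel assay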
Cytochrome P450 2C9 [1] = target: T1, Cytochrome P450 2C9 (Homo sapiens, UniProt P11712)
Cytochrome P450 2C9 [2] = target: T1, Cytochrome P450 2C9; remark: listed apart in the source
Aminopeptidase N = target: T2, Aminopeptidase N (Plasmodium falciparum FcB1/Columbia, UniProt O96935); assay: malaria alanyl aminopeptidase activity blockers – biochemical, fluorogenic H-Leu-NHMec substrate, 1536-well (AID 1445); design: species or system Plasmodium falciparum 3D7, 3D7
T2 sequence (O96935 whole entry): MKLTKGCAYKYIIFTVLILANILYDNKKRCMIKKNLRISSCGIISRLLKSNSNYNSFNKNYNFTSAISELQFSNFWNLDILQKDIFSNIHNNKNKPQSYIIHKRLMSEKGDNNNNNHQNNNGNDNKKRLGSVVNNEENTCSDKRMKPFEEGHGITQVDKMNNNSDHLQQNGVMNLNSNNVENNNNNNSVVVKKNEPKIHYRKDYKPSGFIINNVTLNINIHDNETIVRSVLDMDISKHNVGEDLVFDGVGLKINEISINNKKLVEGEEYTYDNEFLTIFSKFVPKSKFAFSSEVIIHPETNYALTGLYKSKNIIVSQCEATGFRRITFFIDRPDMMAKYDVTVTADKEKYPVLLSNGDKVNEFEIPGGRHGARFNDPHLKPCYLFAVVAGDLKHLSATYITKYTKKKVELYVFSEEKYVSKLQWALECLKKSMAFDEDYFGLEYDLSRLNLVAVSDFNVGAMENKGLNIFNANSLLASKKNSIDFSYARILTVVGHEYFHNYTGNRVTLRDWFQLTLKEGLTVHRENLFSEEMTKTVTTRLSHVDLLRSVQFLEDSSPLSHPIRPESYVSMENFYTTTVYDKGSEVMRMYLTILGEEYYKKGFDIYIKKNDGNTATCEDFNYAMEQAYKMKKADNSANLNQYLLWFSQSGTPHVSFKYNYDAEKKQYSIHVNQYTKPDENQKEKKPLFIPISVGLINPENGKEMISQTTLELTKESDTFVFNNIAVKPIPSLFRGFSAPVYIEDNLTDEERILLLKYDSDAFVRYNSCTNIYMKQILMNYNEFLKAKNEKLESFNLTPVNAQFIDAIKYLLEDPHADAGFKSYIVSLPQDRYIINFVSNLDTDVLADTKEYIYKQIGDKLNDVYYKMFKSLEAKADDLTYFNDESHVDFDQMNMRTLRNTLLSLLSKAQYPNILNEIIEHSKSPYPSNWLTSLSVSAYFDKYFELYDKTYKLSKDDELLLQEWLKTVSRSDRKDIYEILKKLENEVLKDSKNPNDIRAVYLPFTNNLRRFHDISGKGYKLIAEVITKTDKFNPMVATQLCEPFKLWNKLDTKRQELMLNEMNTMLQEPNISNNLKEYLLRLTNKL

[3] = target: T3, Replicative DNA helicase DnaB (Mycobacterium tuberculosis, UniProt P9WMR3); assay: DnaB intein splicing inhibitors, dose response, biochemical, cell-free fluorescence (AID 449749); type: functional
T3 sequence (P9WMR3 whole entry): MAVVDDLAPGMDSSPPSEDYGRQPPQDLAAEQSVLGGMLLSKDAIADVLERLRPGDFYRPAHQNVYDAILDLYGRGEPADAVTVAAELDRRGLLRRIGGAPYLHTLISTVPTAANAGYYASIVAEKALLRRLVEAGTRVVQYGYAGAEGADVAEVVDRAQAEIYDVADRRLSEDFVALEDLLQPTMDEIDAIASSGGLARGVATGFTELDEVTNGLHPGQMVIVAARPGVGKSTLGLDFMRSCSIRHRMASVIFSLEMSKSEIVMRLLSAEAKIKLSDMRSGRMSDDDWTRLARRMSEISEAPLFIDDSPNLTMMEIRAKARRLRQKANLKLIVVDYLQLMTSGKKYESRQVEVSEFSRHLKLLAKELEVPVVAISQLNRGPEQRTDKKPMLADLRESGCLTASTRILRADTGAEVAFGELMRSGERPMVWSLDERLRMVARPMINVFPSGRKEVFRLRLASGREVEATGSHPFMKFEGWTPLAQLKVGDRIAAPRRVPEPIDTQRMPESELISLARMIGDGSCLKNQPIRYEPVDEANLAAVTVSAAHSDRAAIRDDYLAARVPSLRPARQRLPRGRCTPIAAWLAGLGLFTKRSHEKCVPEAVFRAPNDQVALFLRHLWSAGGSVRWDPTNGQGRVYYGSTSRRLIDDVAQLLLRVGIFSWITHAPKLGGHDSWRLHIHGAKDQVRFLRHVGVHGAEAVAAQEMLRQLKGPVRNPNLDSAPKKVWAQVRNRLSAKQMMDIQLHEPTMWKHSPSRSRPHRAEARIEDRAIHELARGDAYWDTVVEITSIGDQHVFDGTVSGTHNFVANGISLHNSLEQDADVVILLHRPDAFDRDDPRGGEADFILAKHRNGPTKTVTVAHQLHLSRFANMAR

Protein RecA = target: T4, Protein RecA (Mycobacterium tuberculosis, UniProt P9WHJ3); assay: Fluorescence Cell-Free Homogeneous Dose Retest to Identify Inhibitors of RecA-Intein Splicing Activity. [Related pubchem assays (depositor defined):AID2097, AID2223, AID489010, AID492950]; type: functional
T4 sequence (P9WHJ3 whole entry): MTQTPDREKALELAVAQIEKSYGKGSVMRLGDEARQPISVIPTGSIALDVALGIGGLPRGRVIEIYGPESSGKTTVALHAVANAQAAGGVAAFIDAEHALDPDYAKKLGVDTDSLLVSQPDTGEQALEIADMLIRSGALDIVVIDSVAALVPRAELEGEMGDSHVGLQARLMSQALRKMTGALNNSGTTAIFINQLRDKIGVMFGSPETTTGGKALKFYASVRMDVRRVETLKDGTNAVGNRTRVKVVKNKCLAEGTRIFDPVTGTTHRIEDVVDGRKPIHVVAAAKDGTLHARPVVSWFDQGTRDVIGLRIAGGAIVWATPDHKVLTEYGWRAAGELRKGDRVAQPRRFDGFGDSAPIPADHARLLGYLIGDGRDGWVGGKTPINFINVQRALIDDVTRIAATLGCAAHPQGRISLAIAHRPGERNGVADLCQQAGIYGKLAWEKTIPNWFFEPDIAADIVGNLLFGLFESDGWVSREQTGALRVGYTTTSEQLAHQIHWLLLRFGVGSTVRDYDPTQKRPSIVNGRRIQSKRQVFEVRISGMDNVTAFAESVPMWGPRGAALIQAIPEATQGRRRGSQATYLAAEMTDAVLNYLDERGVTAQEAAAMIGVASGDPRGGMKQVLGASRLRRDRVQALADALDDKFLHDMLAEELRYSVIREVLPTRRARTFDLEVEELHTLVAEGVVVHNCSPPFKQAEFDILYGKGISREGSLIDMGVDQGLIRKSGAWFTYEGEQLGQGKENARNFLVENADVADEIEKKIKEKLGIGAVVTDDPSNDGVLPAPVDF

Genome polyprotein = Genome polyprotein (dengue virus type 2, UniProt P29990); assay: flavivirus cap methylation enzyme inhibition – biochemical, confirmation dose response, primary screen (AID 588689); type: functional
Sequence of Genome polyprotein (P29990 2492-3391 limits assumed): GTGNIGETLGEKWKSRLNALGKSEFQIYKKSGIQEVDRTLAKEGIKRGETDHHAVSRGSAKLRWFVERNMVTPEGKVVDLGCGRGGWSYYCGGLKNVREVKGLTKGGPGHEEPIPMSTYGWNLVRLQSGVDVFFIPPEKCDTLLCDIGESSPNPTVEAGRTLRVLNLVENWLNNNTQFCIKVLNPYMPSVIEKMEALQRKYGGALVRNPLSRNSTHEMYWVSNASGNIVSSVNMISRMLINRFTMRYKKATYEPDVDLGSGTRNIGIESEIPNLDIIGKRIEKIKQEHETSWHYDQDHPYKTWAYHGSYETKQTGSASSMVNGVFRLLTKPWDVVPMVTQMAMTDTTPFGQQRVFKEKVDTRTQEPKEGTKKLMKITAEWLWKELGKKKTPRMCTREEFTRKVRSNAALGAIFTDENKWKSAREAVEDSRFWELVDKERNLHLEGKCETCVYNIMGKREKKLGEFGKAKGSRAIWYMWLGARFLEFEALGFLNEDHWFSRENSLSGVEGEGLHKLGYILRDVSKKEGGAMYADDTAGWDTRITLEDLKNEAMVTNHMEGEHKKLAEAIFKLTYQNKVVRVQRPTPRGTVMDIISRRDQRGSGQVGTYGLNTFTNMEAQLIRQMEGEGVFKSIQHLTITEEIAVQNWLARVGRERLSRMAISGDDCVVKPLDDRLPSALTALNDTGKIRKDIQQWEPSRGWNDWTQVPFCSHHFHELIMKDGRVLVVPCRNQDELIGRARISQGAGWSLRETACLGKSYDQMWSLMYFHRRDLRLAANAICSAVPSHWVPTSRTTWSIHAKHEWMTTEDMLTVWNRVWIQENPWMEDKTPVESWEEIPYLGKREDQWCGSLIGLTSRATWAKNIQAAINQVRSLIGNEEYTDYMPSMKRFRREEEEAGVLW

Cytochrome P450 2C19 = Cytochrome P450 2C19 (Homo sapiens, UniProt P33261); assay: Cytochrome panel assay with activity outcomes. Panel member name: p450-cyp2c19 Compounds with AC50 equal or less than 10 uM are considered active; type: functional; conditions: read-out: AC50
Sequence of Cytochrome P450 2C19 (P33261 whole entry): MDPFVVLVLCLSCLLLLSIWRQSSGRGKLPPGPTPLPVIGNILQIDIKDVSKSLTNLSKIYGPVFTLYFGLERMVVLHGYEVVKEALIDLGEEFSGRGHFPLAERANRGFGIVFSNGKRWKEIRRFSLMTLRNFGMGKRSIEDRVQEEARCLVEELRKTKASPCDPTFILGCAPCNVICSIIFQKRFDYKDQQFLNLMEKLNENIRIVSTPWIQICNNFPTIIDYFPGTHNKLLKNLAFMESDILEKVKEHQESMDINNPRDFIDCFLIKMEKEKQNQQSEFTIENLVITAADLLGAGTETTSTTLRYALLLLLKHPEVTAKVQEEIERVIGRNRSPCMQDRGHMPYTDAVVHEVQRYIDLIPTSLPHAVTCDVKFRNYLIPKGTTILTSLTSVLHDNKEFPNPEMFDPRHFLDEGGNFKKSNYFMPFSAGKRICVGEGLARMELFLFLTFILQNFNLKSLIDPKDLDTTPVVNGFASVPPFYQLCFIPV

Cytochrome P450 1A2 = target: T5, Cytochrome P450 1A2 (Homo sapiens, UniProt P05177);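 further: PubChem cytochrome P450 panel assay, CYP1A2 panel member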
T5 sequence (P05177 whole entry): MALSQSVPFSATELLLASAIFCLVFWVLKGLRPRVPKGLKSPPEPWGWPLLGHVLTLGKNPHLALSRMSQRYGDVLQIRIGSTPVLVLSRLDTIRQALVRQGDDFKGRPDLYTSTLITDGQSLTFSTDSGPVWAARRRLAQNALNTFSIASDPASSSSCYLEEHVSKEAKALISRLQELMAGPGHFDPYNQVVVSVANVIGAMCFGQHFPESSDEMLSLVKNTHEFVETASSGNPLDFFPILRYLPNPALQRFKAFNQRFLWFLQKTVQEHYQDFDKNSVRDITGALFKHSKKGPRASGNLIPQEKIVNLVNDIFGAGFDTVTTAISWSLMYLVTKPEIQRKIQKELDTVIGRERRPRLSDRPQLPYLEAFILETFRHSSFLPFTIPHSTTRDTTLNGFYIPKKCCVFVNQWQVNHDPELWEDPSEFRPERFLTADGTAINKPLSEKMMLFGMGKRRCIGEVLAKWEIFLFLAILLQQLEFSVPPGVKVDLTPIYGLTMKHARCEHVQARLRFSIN

Cytochrome P450 3A4 = Cytochrome P450 3A4 (Homo sapiens, UniProt P08684);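 further: CYP3A4 tested as one member of a cytochrome P450 panel screen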
Sequence of Cytochrome P450 3A4 (P08684 whole entry): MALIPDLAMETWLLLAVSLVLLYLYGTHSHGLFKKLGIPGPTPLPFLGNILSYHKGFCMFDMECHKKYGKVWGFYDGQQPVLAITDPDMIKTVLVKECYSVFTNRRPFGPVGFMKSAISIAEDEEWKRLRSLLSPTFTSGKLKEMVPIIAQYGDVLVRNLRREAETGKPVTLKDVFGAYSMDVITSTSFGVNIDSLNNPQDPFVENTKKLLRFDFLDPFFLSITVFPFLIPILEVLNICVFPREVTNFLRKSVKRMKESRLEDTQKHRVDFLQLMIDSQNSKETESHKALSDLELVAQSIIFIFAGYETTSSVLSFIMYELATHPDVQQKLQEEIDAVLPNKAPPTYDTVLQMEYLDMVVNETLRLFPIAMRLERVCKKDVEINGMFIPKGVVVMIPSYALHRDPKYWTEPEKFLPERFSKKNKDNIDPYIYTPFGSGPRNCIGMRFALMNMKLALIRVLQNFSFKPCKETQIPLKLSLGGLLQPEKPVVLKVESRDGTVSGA

[4] = target: T6, Rac GTPase-activating protein 1 (Homo sapiens, UniProt Q9H0H5); assay: blockers of MgcRacGAP-driven Rac1 GTP hydrolysis – biochemical, ADP Hunter fluorescence, primary and confirmatory, confirmation (AID 624330); type: functional
T6 sequence (Q9H0H5 whole entry): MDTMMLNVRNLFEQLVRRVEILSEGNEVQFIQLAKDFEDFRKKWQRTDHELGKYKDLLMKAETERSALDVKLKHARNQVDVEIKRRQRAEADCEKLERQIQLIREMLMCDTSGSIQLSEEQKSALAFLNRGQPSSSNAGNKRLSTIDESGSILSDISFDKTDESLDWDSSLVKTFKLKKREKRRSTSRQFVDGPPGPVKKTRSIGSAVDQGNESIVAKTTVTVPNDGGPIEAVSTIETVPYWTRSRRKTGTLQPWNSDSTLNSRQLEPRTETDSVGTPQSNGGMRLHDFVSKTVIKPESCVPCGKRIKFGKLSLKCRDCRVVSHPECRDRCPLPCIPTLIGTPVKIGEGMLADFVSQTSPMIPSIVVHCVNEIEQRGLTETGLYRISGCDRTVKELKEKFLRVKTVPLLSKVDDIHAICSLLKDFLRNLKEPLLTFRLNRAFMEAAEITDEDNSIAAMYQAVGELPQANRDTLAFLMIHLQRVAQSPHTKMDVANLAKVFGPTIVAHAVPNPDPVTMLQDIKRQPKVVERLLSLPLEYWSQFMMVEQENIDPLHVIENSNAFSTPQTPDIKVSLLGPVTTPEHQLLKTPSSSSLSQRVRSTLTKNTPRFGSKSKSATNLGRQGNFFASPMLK

T1 sequence (P11712 whole entry): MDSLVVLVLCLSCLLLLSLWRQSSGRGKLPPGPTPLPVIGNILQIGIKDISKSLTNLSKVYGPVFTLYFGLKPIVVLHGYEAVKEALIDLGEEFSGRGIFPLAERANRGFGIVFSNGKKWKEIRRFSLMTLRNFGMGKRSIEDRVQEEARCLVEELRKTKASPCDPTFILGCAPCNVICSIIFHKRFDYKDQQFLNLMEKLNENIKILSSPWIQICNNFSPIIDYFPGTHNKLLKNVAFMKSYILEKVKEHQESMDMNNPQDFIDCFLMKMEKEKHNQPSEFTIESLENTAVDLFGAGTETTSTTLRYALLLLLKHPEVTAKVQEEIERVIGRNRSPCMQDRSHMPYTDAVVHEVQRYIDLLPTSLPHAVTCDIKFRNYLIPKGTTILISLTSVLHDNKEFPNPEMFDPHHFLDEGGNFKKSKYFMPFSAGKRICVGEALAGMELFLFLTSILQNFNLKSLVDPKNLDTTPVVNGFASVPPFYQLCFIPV
Sequence of Cytochrome P450 2D6 (P10635 whole entry): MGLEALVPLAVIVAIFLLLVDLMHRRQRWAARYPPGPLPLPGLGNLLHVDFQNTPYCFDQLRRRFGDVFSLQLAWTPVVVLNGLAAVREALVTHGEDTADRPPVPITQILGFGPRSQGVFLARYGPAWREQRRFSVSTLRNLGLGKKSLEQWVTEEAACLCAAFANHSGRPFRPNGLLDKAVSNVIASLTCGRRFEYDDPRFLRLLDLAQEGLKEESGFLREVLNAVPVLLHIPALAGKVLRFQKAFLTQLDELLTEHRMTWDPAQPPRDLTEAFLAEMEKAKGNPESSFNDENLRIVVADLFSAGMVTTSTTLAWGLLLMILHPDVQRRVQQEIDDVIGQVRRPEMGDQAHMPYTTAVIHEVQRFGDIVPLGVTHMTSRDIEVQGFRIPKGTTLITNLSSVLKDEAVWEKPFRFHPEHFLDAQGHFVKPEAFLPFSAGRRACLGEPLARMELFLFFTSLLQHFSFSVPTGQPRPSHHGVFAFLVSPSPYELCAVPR

For `CC(C)(C)NC(=O)C(Cc1ccccc1)NS(=O)(=O)c1ccc2c(c1)CCC(=O)N2` (stereo not drawn), the AC50 (Cytochrome P450 2D6) was 12.6 µM (inconclusive) and the AC50 (Cytochrome P450 2C9 [1]) was “inconclusive”.
For `N=C(N)NC(=O)Cc1c(Cl)cccc1Cl` [GUANFACINE], the AC50 (Cytochrome P450 2C9 [2]) was 31.6 µM (inconclusive) and the AC50 (Cytochrome P450 2C9 [1]) was “inconclusive”.
`COc1ccc2cc(C#N)c(SCC(=O)N3CCCC3)nc2c1` was tested, and the IC50 (Aminopeptidase N) was 55.7 µM (active).
For `CC1=NN(c2ccccc2)C(=O)/C1=C/c1cccc(C)c1`, the AC50 [3] was 3.59 µM (active), the EC50 (Protein RecA) was 1.58 µM (active) and the IC50 (Genome polyprotein) was 50.5 µM (active).
With `O=C(N/N=C1\CCCc2ccccc21)c1ccc([N+](=O)[O-])cc1Cl` the AC50 (Cytochrome P450 2C9 [1]) was “inconclusive”.
For `Cc1cc(C)cc(OCC(=O)Nc2ccc3c4c(cccc24)CC3)c1`, the AC50 (Cytochrome P450 2C19) was 11.2 µM (inconclusive), the AC50 (Cytochrome P450 1A2) was 2.51 µM (inconclusive) and the AC50 (Cytochrome P450 2C9 [1]) was “inconclusive”.
`COC(=O)c1ccccc1NC(=O)c1ccc(COc2ccc(C)c(C)c2)o1` was tested, and the AC50 (Cytochrome P450 3A4) was 1.41 µM (inconclusive) and the AC50 (Cytochrome P450 2C9 [1]) was “inconclusive”.
For `Cc1nc(S(=O)(=O)c2cccc(Cl)c2)nc2c1CCC2`, the AC50 (Cytochrome P450 1A2) was 12.6 µM (inconclusive) and the AC50 (Cytochrome P450 2C9 [1]) was “inconclusive”.
With `O=C(Nn1c(-c2ccccc2)nc2ccccc2c1=O)c1cccs1` the IC50 (Aminopeptidase N) was 51.1 µM (active).
With `Cc1ccc(S(=O)(=O)NN2C(=O)/C(=C/c3cccs3)SC2=S)cc1` the IC50 (Aminopeptidase N) was 30.9 µM (active) and the IC50 (Genome polyprotein) was 35.3 µM (active).
In the case of `Cc1c(NC(=S)N/N=C/c2ccc(O)cc2)c(=O)n(-c2ccccc2)n1C`, the IC50 [4] is reported as 55.6 µM (active) and the AC50 (Cytochrome P450 2C9 [1]) is reported as “inconclusive”.
In the case of `CN1[C@@H]2CC[C@H]1CC(O[C@@H](c1ccccc1)c1ccccc1N)C2` (stereo partly drawn), the AC50 (Cytochrome P450 2D6) is reported as 25.1 µM (inconclusive), the AC50 (Cytochrome P450 1A2) is reported as 15.8 µM (inconclusive) and the AC50 (Cytochrome P450 3A4) is reported as 12.6 µM (inconclusive). For the same molecule, the AC50 (Cytochrome P450 2C9 [1]) was “inconclusive”.
With `CCOC(=O)COc1ccc(Br)cc1/C=C\c1nc(O)nc(O)c1[N+](=O)[O-]` the IC50 (Aminopeptidase N) was 36.5 µM (active).
`CCOc1ccc(NC(=O)CCNS(=O)(=O)c2ccc3c(c2)c(=O)n(C)c(=O)n3C)cc1` was tested, and the AC50 (Cytochrome P450 1A2) was 2.51 µM (inconclusive) and the AC50 (Cytochrome P450 2C9 [1]) was “inconclusive”.
